≈ marks a conversion by molar mass, not a printed value.
Assays:
physchem = conditions: buffer, pH 7.4
[1] = Solubility of the compound in pH 6.5 FaSSIF at […] measured after 16 hrs by HPLC analysis; format: physicochemical
[2] = Permeability of the compound at pH 7.4 by artificial membrane permeability assay; format: ADME; conditions: PAMPA, read-out: permeability
[3] = Oral bioavailability in Beagle dog; format: ADME, organism-based, Canis lupus familiaris; conditions: in vivo
[4] = Volume of distribution at steady state in Wistar Han rat at 1 mg/kg, iv administered as 1 hr infusion or 3 mg/kg, po administered via gavage by LC-MS/MS analysis; format: ADME, organism-based; conditions: in vivo, read-out: Vdss
[5] = Clearance in Wistar Han rat at 1 mg/kg, iv administered as 1 hr infusion or 3 mg/kg, po administered via gavage by LC-MS/MS analysis; format: ADME, organism-based; conditions: in vivo
[6] = Oral bioavailability in Wistar Han rat at 3 mg/kg administered via gavage by LC-MS/MS analysis; format: ADME, organism-based; conditions: in vivo
[7] = Half life in Beagle dog at 0.5 mg/kg, iv administered as 1 hr infusion on day 1 and day 7 to achieve a target dose of 1 mg/kg by LC-MS/MS analysis; format: ADME, organism-based, Canis lupus familiaris; conditions: in vivo, dose 0.5-1 mg/kg, time 7 day
[8] = Intrinsic clearance in Wistar Han rat cryopreserved pooled hepatocytes at 0.5 uM measured up to 60 mins by LC-MS/MS analysis; format: ADME, tissue-based, Hepatocyte; conditions: 1 h
[9] = Clearance in Beagle dog at 0.5 mg/kg, iv administered as 1 hr infusion on day 1 and day 7 to achieve a target dose of 1 mg/kg by LC-MS/MS analysis; format: ADME, organism-based, Canis lupus familiaris; conditions: in vivo, dose 0.5-1 mg/kg, time 7 day
[10] = Unbound clearance in Beagle dog at 0.5 mg/kg, iv administered as 1 hr infusion on day 1 and day 7 to achieve a target dose of 1 mg/kg by LC-MS/MS analysis; format: ADME, organism-based, Canis lupus familiaris; conditions: in vivo, 168 h, dose 0.5-1 mg/kg, time 7 day
[11] = Unbound clearance in Wistar Han rat at 1 mg/kg, iv administered as 1 hr infusion or 3 mg/kg, po administered via gavage by LC-MS/MS analysis; format: ADME, organism-based; conditions: in vivo
[12] = Volume of distribution at steady state in Beagle dog at 0.5 mg/kg, iv administered as 1 hr infusion on day 1 and day 7 to achieve a target dose of 1 mg/kg by LC-MS/MS analysis; format: ADME, organism-based, Canis lupus familiaris; conditions: in vivo, dose 0.5-1 mg/kg, time 7 day, read-out: Vdss
[13] = Half life in Wistar Han rat at 1 mg/kg, iv administered as 1 hr infusion or 3 mg/kg, po administered via gavage by LC-MS/MS analysis; format: ADME, organism-based; conditions: in vivo
[14] = Intrinsic clearance in human cryopreserved pooled hepatocytes at 0.5 uM measured up to 120 mins by LC-MS/MS analysis; format: ADME, tissue-based, Hepatocyte; conditions: 2 h
[15] = Intrinsic clearance in Beagle dog cryopreserved pooled hepatocytes at 0.5 uM measured up to 120 mins by LC-MS/MS analysis; format: ADME, tissue-based, Canis lupus familiaris, Hepatocyte; conditions: 2 h

Compound | chromatographic logD (physchem) | solubility at 16 h [1] | Papp [2] | also measured
CNC(=O)c1cc(C(=O)NC2CC2)cn([C@H](C)c2ccccc2)c1=O | 3.5 |  |  | 
CNC(=O)c1cc(C(=O)NC2CC2)cn(Cc2cccc3[nH]ccc23)c1=O |  | 20 µg/mL (≈ 54.9 µM) | 17.8 ×10⁻⁶ cm/s | 
CC(=O)Nc1ccc(C(=O)NCCc2cnc[nH]2)cc1OCc1ccccc1 | 2.2 |  |  | 
CNC(=O)c1cc(C(=O)N[C@H]2[C@@H]3COC[C@@H]32)cc(Cc2cccc3[nH]ccc23)n1 | 3.1 | 91 µg/mL (≈ 233 µM) | 16 ×10⁻⁶ cm/s | bioavailability [3]: 41%; Vd [4]: 1.8 L/kg; clearance [5]: 39 mL/min/kg; bioavailability [6]: 69%; half-life [7]: 150 min; CLH [8]: 2.05 mL/min/g; clearance [9]: 4 mL/min/kg; CL free [10]: 19 mL/min/kg; CL free [11]: 206 mL/min/kg; Vd [12]: 0.9 L/kg; half-life [13]: 42 min; CLH [14]: < 0.45 mL/min/g; CLH [15]: < 0.65 mL/min/g
CNC(=O)c1cc(C(=O)N[C@H]2C[C@@H]2C)cc([C@@H](CC#N)c2ccccc2)n1 | 4 |  | 35.3 ×10⁻⁶ cm/s | 
CNC(=O)c1cc(C(=O)NC2CC2)cc(Cc2cccc3c2CCN3)n1.Cl | 3 | 953 µg/mL | 19 ×10⁻⁶ cm/s | Vd [4]: 4.1 L/kg; clearance [5]: 33 mL/min/kg; bioavailability [6]: 98%; CLH [8]: 0.88 mL/min/g; CL free [11]: 73 mL/min/kg; half-life [13]: 114 min; CLH [14]: < 0.45 mL/min/g; CLH [15]: < 0.65 mL/min/g
CNC(=O)c1cc(C(=O)N[C@H]2C[C@@H]2C)cc(Cc2ccccc2)n1 | 4.6 | 94 µg/mL (≈ 291 µM) | 63 ×10⁻⁶ cm/s | 
CNC(=O)c1cc(C(=O)N[C@H]2C[C@@H]2C)cc(C(OC)c2ccccc2)n1 (some centres not stated) | 4.3 |  | 56 ×10⁻⁶ cm/s | 
CNC(=O)c1cc(C(=O)N[C@H]2[C@@H]3C[C@H](O)C[C@@H]32)cc(Cc2ccccc2)n1 | 3.5 | 43 µg/mL (≈ 118 µM) | 15 ×10⁻⁶ cm/s | 
CNC(=O)c1cc(C(=O)N[C@H]2CC[C@H](O)CC2)cc(Cc2ccccc2)n1 | 3.1 | 473 µg/mL (≈ 1290 µM) | 8.6 ×10⁻⁶ cm/s | 
CNC(=O)c1cc(C(N)=O)cc(Cc2ccccc2)n1 | 2.7 |  | 21 ×10⁻⁶ cm/s | 
CNC(=O)c1cc(C(=O)N[C@H]2C[C@@H]2C)cc(Cc2cccc3[nH]ccc23)n1 | 3 | 127 µg/mL (≈ 350 µM) | 18.3 ×10⁻⁶ cm/s | bioavailability [3]: 55%; Vd [4]: 1.2 L/kg; clearance [5]: 18 mL/min/kg; bioavailability [6]: 48%; half-life [7]: 132 min; CLH [8]: 1.06 mL/min/g; clearance [9]: 13 mL/min/kg; CL free [10]: 88 mL/min/kg; CL free [11]: 69 mL/min/kg; Vd [12]: 1.6 L/kg; half-life [13]: 72 min; CLH [14]: < 0.45 mL/min/g; CLH [15]: < 0.65 mL/min/g
CNC(=O)c1cc(C(=O)NC(C)C)cc(Cc2ccccc2)n1 |  | 101 µg/mL (≈ 324 µM) | 57 ×10⁻⁶ cm/s | 
CNC(=O)c1cc(C(=O)N[C@H]2[C@@H]3C[C@@H](O)C[C@@H]32)cc(C(OC)c2ccccc2)n1 (some centres not stated) | 2.9 |  | 5.6 ×10⁻⁶ cm/s | Vd [4]: 1.8 L/kg; clearance [5]: 57 mL/min/kg; bioavailability [6]: 77%; CLH [8]: < 0.8 mL/min/g; CL free [11]: 95 mL/min/kg; half-life [13]: 42 min; CLH [14]: < 0.45 mL/min/g; CLH [15]: < 0.65 mL/min/g
CNC(=O)c1cc(C(=O)N[C@H]2[C@@H]3C[C@@H](O)C[C@@H]32)cc([C@@H](C)c2ccccc2)n1 | 3.6 | 744 µg/mL (≈ 1960 µM) | 13 ×10⁻⁶ cm/s | 
CNC(=O)c1cc(C(=O)O)cc(Cc2ccccc2)n1 |  | > 1000 µg/mL |  | 
CNC(=O)c1cc(C(=O)NC2CC2)cn([C@@H](C)c2ccccc2)c1=O | 3.3 | 598 µg/mL (≈ 1760 µM) |  | 
CNC(=O)c1cc(C(=O)NC2CC2)cc([C@@H](C)c2ccccc2)n1 | 4.4 | 123 µg/mL (≈ 380 µM) | 55.5 ×10⁻⁶ cm/s | 
CNC(=O)c1cc(C(=O)NC2CCOCC2)cc(Cc2ccccc2)n1 | 3.7 | 173 µg/mL (≈ 489 µM) | 22 ×10⁻⁶ cm/s | 

Compound | chromatographic logD (physchem) | solubility at 16 h [1] | Papp [2] | also measured
CNC(=O)c1cc(C(=O)NC2CC2)cc(Cc2cccc3[nH]ccc23)n1 | 3.5 |  | 30.5 ×10⁻⁶ cm/s | 
CNC(=O)c1cc(C(=O)N[C@H]2[C@@H]3COC[C@@H]32)cc(C(O)c2ccccc2)n1 (some centres not stated) | 2.2 | 473 µg/mL (≈ 1290 µM) | 2.4 ×10⁻⁶ cm/s | 
CNC(=O)c1cc(C(=O)NCCC[C@H]2OC[C@H](N)CO2)cc(Cc2ccccc2)n1 | 2.8 |  | 15 ×10⁻⁶ cm/s | bioavailability [3]: 98%; Vd [4]: 0.7 L/kg; clearance [5]: 31 mL/min/kg; bioavailability [6]: 28%; half-life [7]: 54 min; CLH [8]: 1.04 mL/min/g; clearance [9]: 42 mL/min/kg; CL free [10]: 118 mL/min/kg; CL free [11]: 365 mL/min/kg; Vd [12]: 2.4 L/kg; half-life [13]: 24 min; CLH [14]: < 0.45 mL/min/g; CLH [15]: < 0.65 mL/min/g
CNC(=O)c1cc(C(=O)N[C@H]2[C@@H]3C[C@H](O)C[C@@H]32)cc([C@@H](C)c2ccccc2)n1 | 4.1 | 572 µg/mL (≈ 1510 µM) | 28 ×10⁻⁶ cm/s | 
CNC(=O)c1cc(C(=O)NC2CC2)cc([C@H](C)c2ccccc2)n1 | 4.3 | 182 µg/mL (≈ 563 µM) | 49 ×10⁻⁶ cm/s | 
CNC(=O)c1cc(C(=O)N[C@H]2[C@@H]3COC[C@@H]32)cc(C(CC#N)c2ccccc2)n1 (some centres not stated) | 3.1 | 930 µg/mL (≈ 2380 µM) | 20 ×10⁻⁶ cm/s | Vd [4]: 5.9 L/kg; clearance [5]: 70 mL/min/kg; bioavailability [6]: 54%; CLH [8]: 1.87 mL/min/g; half-life [13]: 264 min; CLH [14]: < 0.45 mL/min/g; CLH [15]: < 0.65 mL/min/g
CNC(=O)c1cccc(Cc2ccccc2)n1 | 4.3 | 258 µg/mL (≈ 1140 µM) | 77 ×10⁻⁶ cm/s | 
CCNC(=O)c1cc(Cc2ccccc2)nc(C(=O)NC)c1 | 3.7 | 310 µg/mL (≈ 1040 µM) |  | 
CNC(=O)c1cc(C(=O)NC2CC2)cc(Cc2cccc3cn[nH]c23)n1 | 2.9 |  | 20 ×10⁻⁶ cm/s | 
CNC(=O)c1cc(Cc2ccccc2)nc(C(=O)NC)c1 | 3.1 | > 1000 µg/mL | 20 ×10⁻⁶ cm/s | 
CNC(=O)c1cc(C(=O)NC2CC2)cc(Cc2ccccc2)n1 | 3.9 | 89 µg/mL (≈ 288 µM) | 38.5 ×10⁻⁶ cm/s | Vd [4]: 0.4 L/kg; clearance [5]: 12 mL/min/kg; bioavailability [6]: 29%; CLH [8]: 5.3 mL/min/g; CL free [11]: 343 mL/min/kg; half-life [13]: 18 min; CLH [14]: < 0.87 mL/min/g; CLH [15]: < 1.3 mL/min/g
CNC(=O)c1cc(C(=O)N[C@H]2[C@@H]3COC[C@@H]32)cc([C@@H](C)c2ccccc2)n1 | 4.1 | 117 µg/mL (≈ 320 µM) | 37 ×10⁻⁶ cm/s | bioavailability [3]: 14%; Vd [4]: 1.7 L/kg; clearance [5]: 52 mL/min/kg; bioavailability [6]: 39%; half-life [7]: 24 min; CLH [8]: 2.03 mL/min/g; clearance [9]: 44 mL/min/kg; CL free [10]: 171 mL/min/kg; CL free [11]: 147 mL/min/kg; Vd [12]: 1.3 L/kg; half-life [13]: 24 min; CLH [14]: < 0.45 mL/min/g; CLH [15]: < 0.65 mL/min/g
CNC(=O)c1cc(C(=O)NC2COC2)cc(Cc2ccccc2)n1 | 3.1 | 73 µg/mL (≈ 224 µM) | 16 ×10⁻⁶ cm/s | 
CNC(=O)c1cc(C(=O)N[C@H]2[C@@H]3C[C@@H](O)C[C@@H]32)cc(Cc2ccccc2)n1 | 3.1 | 143 µg/mL (≈ 391 µM) | 7.1 ×10⁻⁶ cm/s | 
CNC(=O)c1cc(C(=O)NC2CC2)cc([C@@H](O)c2ccccc2)n1 | 2.4 | > 1000 µg/mL | 7.15 ×10⁻⁶ cm/s | 
CNC(=O)c1cc(C(=O)N[C@H]2C[C@H](O)C2)cc(Cc2ccccc2)n1 | 2.7 | 194 µg/mL (≈ 572 µM) | 7.3 ×10⁻⁶ cm/s | 
CNC(=O)c1cc(C(=O)N(C)C)cc(Cc2ccccc2)n1 | 3.3 |  | 33 ×10⁻⁶ cm/s | 
CNC(=O)c1cc(C(=O)N[C@H]2C[C@@H]2C)cc([C@@H](CO)c2ccccc2)n1 | 3.3 | > 1000 µg/mL | 10 ×10⁻⁶ cm/s | 
CC(=O)Nc1c(F)cc(C(=O)N[C@H]2CC[C@H](O)CC2)cc1O[C@@H](C)c1ccccc1 [GSK046] | 2.8 |  |  | 

Source: ChEMBL document CHEMBL4808200, “Identification of a Series of N-Methylpyridine-2-carboxamides as Potent and Selective Inhibitors of the Second Bromodomain (BD2) of the Bromo and Extra Terminal Domain (BET) Proteins” (J Med Chem, 2021)
